Assay results taken from ChEMBL document CHEMBL4732177 (J Med Chem, 2021).
Bridge positions count the residues as written; N and C are the ends. Square brackets hold non-standard residues; d marks the D form. Peptide text beside a SMILES is read from it. NMeR = CN[C@@H](CCCNC(=N)N)C(=O)O; AllylGly = C=CC[C@H](N)C(=O)O; Tle = CC(C)(C)[C@H](N)C(=O)O

Experiments:
[1] = biological target: Neurotensin receptor type 1 (Mus musculus, UniProt O88319); experiment: Displacement of [3H]-neurotensin from NTS1 in mouse brain membrane incubated for 30 mins by liquid scintillation counter analysis; assay type: cell membranes
Sequence of Neurotensin receptor type 1 (Mus musculus, UniProt O88319) (O88319 whole entry): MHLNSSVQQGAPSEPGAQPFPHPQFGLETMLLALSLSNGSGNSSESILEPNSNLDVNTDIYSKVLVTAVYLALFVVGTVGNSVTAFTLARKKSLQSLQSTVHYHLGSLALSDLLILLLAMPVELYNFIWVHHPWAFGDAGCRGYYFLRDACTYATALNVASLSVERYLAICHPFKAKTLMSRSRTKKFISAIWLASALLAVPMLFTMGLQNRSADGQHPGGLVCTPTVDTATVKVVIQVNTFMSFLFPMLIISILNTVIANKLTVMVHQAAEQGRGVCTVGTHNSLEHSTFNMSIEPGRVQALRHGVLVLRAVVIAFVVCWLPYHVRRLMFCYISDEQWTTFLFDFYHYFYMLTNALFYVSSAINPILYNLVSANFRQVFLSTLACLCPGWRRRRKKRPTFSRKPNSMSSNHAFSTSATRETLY

[2] = biological target: Neurotensin receptor type 1 (Homo sapiens, UniProt P30989); experiment: Displacement of [125I]Tyr3-neurotensin from human recombinant NTS1 stably expressed in CHO-K1 cell membranes incubated for 60 mins by gamma counter analysis; set-up: species or system Cell membrane
Sequence of Neurotensin receptor type 1 (Homo sapiens, UniProt P30989) (P30989 whole entry): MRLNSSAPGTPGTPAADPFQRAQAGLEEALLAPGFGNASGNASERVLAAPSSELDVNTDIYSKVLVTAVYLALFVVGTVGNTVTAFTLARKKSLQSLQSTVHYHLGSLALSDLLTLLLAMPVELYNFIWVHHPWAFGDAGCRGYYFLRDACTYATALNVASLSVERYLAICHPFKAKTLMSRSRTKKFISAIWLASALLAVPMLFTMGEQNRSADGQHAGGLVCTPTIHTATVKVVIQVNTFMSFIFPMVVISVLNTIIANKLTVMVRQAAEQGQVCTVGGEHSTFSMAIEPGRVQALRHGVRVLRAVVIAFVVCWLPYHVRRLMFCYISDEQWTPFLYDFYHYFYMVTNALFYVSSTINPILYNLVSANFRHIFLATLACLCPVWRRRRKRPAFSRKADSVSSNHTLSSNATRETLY

[3] = biological target: Neurotensin receptor type 2 (Homo sapiens, UniProt O95665); experiment: Displacement of [125I]Tyr3-neurotensin from human recombinant NTS2 stably expressed in human 1321N1 cell membranes incubated for 60 mins by gamma counter analysis; set-up: species or system Cell membrane
Sequence of Neurotensin receptor type 2 (O95665 whole entry): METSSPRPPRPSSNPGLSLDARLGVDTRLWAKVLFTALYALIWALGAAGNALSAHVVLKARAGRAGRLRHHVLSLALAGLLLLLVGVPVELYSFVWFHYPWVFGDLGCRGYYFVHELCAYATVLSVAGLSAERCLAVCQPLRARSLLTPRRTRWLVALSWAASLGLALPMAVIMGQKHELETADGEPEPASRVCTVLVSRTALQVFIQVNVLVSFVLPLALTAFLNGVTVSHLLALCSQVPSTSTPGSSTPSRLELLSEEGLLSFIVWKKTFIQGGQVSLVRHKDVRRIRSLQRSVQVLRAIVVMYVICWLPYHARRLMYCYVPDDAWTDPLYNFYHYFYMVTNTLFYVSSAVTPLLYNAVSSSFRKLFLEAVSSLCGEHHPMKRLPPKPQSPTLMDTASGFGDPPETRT

| Compound | Ki [1] [nM] | Ki [2] [nM] | Ki [3] [nM] |
| --- | --- | --- | --- |
| CN[C@@H](CCCNC(=N)N)C(=O)N[C@H]1CCCCNC(=O)CC[C@@H](C(=O)N[C@@H](CC(C)C)C(=O)O)NC(=O)[C@H](Cc2c[nH]c3ccccc23)NC(=O)[C@@H]2CCCN2C1=O (H-[NMeR]KPWEL-OH; lactam 2-5) | 770 |  |  |
| CC[C@H](C)[C@H](NC(=O)[C@H](C)NC(=O)[C@@H]1CCCN1C(=O)[C@H](CCCN=C(N)N)NC(=O)[C@H](CCCN=C(N)N)NC(=O)[C@@H]1CCCN1C(=O)[C@H](CCCCN)NC(=O)[C@H](CC(N)=O)NC(=O)[C@H](CCC(=O)O)NC(=O)[C@H](Cc1ccc(O)cc1)NC(=O)[C@H](CC(C)C)NC(=O)[C@@H]1CCC(=O)N1)C(=O)N[C@@H](CC(C)C)C(=O)O |  | > 10000 | 590 |
| CC(C)C[C@H](NC(=O)[C@H](Cc1ccc(O)cc1)NC(=O)[C@@H]1CSSC[C@H](N)C(=O)N[C@@H](CCCCN)C(=O)N[C@@H](CCCCN)C(=O)N1)C(=O)O (H-CKKCYL-OH; disulfide 1-4) |  | > 100000 | 1500 |
| CC[C@H](C)[C@H](NC(=O)[C@H](Cc1ccc(O)cc1)NC(=O)[C@@H]1CCCN1C(=O)[C@H](CCCNC(=N)N)NC(=O)[C@H](CCCNC(=N)N)NC(=O)[C@@H]1CCCN1C(=O)[C@H](CCCCN)NC(=O)[C@H](CC(N)=O)NC(=O)[C@H](C)NC(=O)[C@H](Cc1ccc(O)cc1)NC(=O)[C@H](CC(C)C)NC(=O)[C@@H]1CCC(=O)N1)C(=O)N[C@@H](CC(C)C)C(=O)O |  | 1.8 | 2.7 |
| CC[C@H](C)[C@H](NC(=O)[C@H](Cc1ccc(O)cc1)NC(=O)[C@@H]1CCCN1C(=O)[C@H](CCCNC(=N)N)NC(=O)[C@H](C)NC(=O)[C@@H]1CCCN1C(=O)[C@H](CCCCN)NC(=O)[C@H](CC(N)=O)NC(=O)[C@H](CCC(=O)O)NC(=O)[C@H](Cc1ccc(O)cc1)NC(=O)[C@H](CC(C)C)NC(=O)[C@@H]1CCC(=O)N1)C(=O)N[C@@H](CC(C)C)C(=O)O |  | 75 | 95 |
| CC[C@@H](C)[C@H](NC(=O)[C@H](Cc1ccc(O)cc1)NC(=O)[C@@H]1C/C=C\C[C@H](NC(=O)[C@@H](N)CCCCN)C(=O)N[C@@H](CCCCN)C(=O)N1)C(=O)N[C@@H](CC(C)C)C(=O)O |  | > 100000 | > 10000 |
| CC(C)C[C@@H]1NC(=O)[C@H](C(C)(C)C)NC(=O)[C@H](Cc2c[nH]c3ccccc23)NC(=O)[C@@H]2CCCN2C(=O)[C@H](CCCCN)NC(=O)[C@H](CCCNC(=N)N)NC1=O (cyclo(KPW[Tle]LR)) | 410 |  |  |
| CC[C@@H](C)[C@H](NC(=O)[C@H](Cc1ccc(O)cc1)NC(=O)[C@@H]1C/C=C\C[C@H](N)C(=O)N[C@@H](CCCCN)C(=O)N[C@@H](CCCCN)C(=O)N1)C(=O)N[C@@H](CC(C)C)C(=O)O |  | > 10000 | > 10000 |
| CC[C@H](C)[C@H](NC(=O)[C@H](Cc1ccc(O)cc1)NC(=O)[C@@H]1CCCN1C(=O)[C@H](CCCNC(=N)N)NC(=O)[C@H](CCCNC(=N)N)NC(=O)[C@H](C)NC(=O)[C@H](CCCCN)NC(=O)[C@H](CC(N)=O)NC(=O)[C@H](CCC(=O)O)NC(=O)[C@H](Cc1ccc(O)cc1)NC(=O)[C@H](CC(C)C)NC(=O)[C@@H]1CCC(=O)N1)C(=O)N[C@@H](CC(C)C)C(=O)O |  | 2.9 | 4.6 |
| CC[C@H](C)[C@H](NC(=O)[C@H](Cc1ccc(O)cc1)NC(=O)[C@@H]1CCCN1C(=O)[C@H](C)NC(=O)[C@H](CCCN=C(N)N)NC(=O)[C@@H]1CCCN1C(=O)[C@H](CCCCN)NC(=O)[C@H](CC(N)=O)NC(=O)[C@H](CCC(=O)O)NC(=O)[C@H](Cc1ccc(O)cc1)NC(=O)[C@H](CC(C)C)NC(=O)[C@@H]1CCC(=O)N1)C(=O)N[C@@H](CC(C)C)C(=O)O |  |  | 10 |
| CC[C@H](C)[C@H](NC(=O)[C@H](Cc1ccc(O)cc1)NC(=O)[C@H](CCCCN)NC(=O)[C@@H]1C/C=C\C[C@H](N)C(=O)N[C@@H](CCCCN)C(=O)N1)C(=O)N[C@@H](CC(C)C)C(=O)O (H-[AllylGly]K[AllylGly]KYIL-OH; staple (Z) 1-3) |  | > 100000 | > 10000 |
| CC[C@H](C)[C@H](NC(=O)[C@H](Cc1ccc(O)cc1)NC(=O)[C@H](C)NC(=O)[C@H](CCCNC(=N)N)NC(=O)[C@H](CCCNC(=N)N)NC(=O)[C@@H]1CCCN1C(=O)[C@H](CCCCN)NC(=O)[C@H](CC(N)=O)NC(=O)[C@H](CCC(=O)O)NC(=O)[C@H](Cc1ccc(O)cc1)NC(=O)[C@H](CC(C)C)NC(=O)[C@@H]1CCC(=O)N1)C(=O)N[C@@H](CC(C)C)C(=O)O |  | 161 | 16 |
| CC[C@H](C)[C@H](NC(=O)[C@H](Cc1ccc(O)cc1)NC(=O)[C@@H]1CCCN1C(=O)[C@H](CCCNC(=N)N)NC(=O)[C@H](CCCNC(=N)N)NC(=O)[C@@H]1CCCN1C(=O)[C@H](CCCCN)NC(=O)[C@H](CC(N)=O)NC(=O)[C@H](CCC(=O)O)NC(=O)[C@H](Cc1ccc(O)cc1)NC(=O)[C@H](CC(C)C)NC(=O)[C@@H]1CCC(=O)N1)C(=O)N[C@@H](C)C(=O)O |  | > 10000 | 655 |
| CC(C)C[C@H](NC(=O)[C@H](Cc1ccc(O)cc1)NC(=O)[C@H]1C/C=C\C[C@H](N)C(=O)N[C@@H](CCCCN)C(=O)N[C@@H](CCCCN)C(=O)N1)C(=O)O |  | > 100000 | 1100 |
| CC[C@H](C)[C@H](NC(=O)[C@H](Cc1ccc(O)cc1)NC(=O)[C@@H]1CCCN1C(=O)[C@H](CCCNC(=N)N)NC(=O)[C@H](CCCNC(=N)N)NC(=O)[C@@H]1CCCN1C(=O)[C@H](CCCCN)NC(=O)[C@H](CC(N)=O)NC(=O)[C@H](CCC(=O)O)NC(=O)[C@H](Cc1ccc(O)cc1)NC(=O)[C@H](CC(C)C)NC(=O)[C@H](C)N)C(=O)N[C@@H](CC(C)C)C(=O)O |  | 2 | 8.7 |
| CC[C@H](C)[C@H](NC(=O)[C@H](Cc1ccc(O)cc1)NC(=O)[C@@H]1CCCN1C(=O)[C@H](CCCNC(=N)N)NC(=O)[C@H](CCCNC(=N)N)NC(=O)[C@@H]1CCCN1C(=O)[C@H](C)NC(=O)[C@H](CC(N)=O)NC(=O)[C@H](CCC(=O)O)NC(=O)[C@H](Cc1ccc(O)cc1)NC(=O)[C@H](CC(C)C)NC(=O)[C@@H]1CCC(=O)N1)C(=O)N[C@@H](CC(C)C)C(=O)O |  | 6 | 9.3 |
| CC[C@H](C)[C@H](NC(=O)[C@H](Cc1ccc(O)cc1)NC(=O)[C@@H]1CCCN1C(=O)[C@@H](C)NC(=O)[C@H](CCCN=C(N)N)NC(=O)[C@@H]1CCCN1C(=O)[C@H](CCCCN)NC(=O)[C@H](CC(N)=O)NC(=O)[C@H](CCC(=O)O)NC(=O)[C@H](Cc1ccc(O)cc1)NC(=O)[C@H](CC(C)C)NC(=O)[C@@H]1CCC(=O)N1)C(=O)N[C@@H](CC(C)C)C(=O)O |  | 174 |  |
| CC[C@@H](C)[C@H](NC(=O)[C@@H]1C/C=C\C[C@H](N)C(=O)N[C@@H](CCCCN)C(=O)N[C@@H](CCCCN)C(=O)N[C@@H](Cc2ccc(O)cc2)C(=O)N1)C(=O)N[C@@H](CC(C)C)C(=O)O |  | > 10000 | 1300 |
| CC[C@H](C)[C@H](NC(=O)[C@H](Cc1ccc(O)cc1)NC(=O)[C@@H]1CCCN1C(=O)[C@H](CCCNC(=N)N)NC(=O)[C@H](CCCNC(=N)N)NC(=O)[C@@H]1CCCN1C(=O)[C@H](CCCCN)NC(=O)[C@H](CC(N)=O)NC(=O)[C@H](CCC(=O)O)NC(=O)[C@H](C)NC(=O)[C@H](CC(C)C)NC(=O)[C@@H]1CCC(=O)N1)C(=O)N[C@@H](CC(C)C)C(=O)O |  | 2.8 | 8.7 |

Next, values leading:

| Ki [1] [nM] | Ki [2] [nM] | Ki [3] [nM] | Compound |
| --- | --- | --- | --- |
|  | > 100000 | > 10000 | CC[C@@H](C)[C@H](NC(=O)[C@H](Cc1ccc(O)cc1)NC(=O)[C@@H]1C/C=C\C[C@H](N)C(=O)N[C@@H](CCCCN)C(=O)N[C@@H](CCCCN)C(=O)N1)C(=O)O |
|  | 2.4 | 6.8 | CC[C@H](C)[C@H](NC(=O)[C@H](Cc1ccc(O)cc1)NC(=O)[C@@H]1CCCN1C(=O)[C@H](CCCNC(=N)N)NC(=O)[C@H](CCCNC(=N)N)NC(=O)[C@@H]1CCCN1C(=O)[C@H](CCCCN)NC(=O)[C@H](CC(N)=O)NC(=O)[C@H](CCC(=O)O)NC(=O)[C@H](Cc1ccc(O)cc1)NC(=O)[C@H](C)NC(=O)[C@@H]1CCC(=O)N1)C(=O)N[C@@H](CC(C)C)C(=O)O |
|  | > 100000 | 2200 | CC(C)C[C@H](NC(=O)[C@H](Cc1ccc(O)cc1)NC(=O)[C@H]1C/C=C\C[C@@H](N)C(=O)N[C@@H](CCCCN)C(=O)N[C@@H](CCCCN)C(=O)N1)C(=O)O |
|  | > 100000 | 90 | CC(C)C[C@H](NC(=O)[C@H](Cc1ccc(O)cc1)NC(=O)[C@@H]1CCCC[C@H](N)C(=O)N[C@@H](CCCCN)C(=O)N[C@@H](CCCCN)C(=O)N1)C(=O)O |
|  | > 100000 | 391 | H-RRPYL-OH |
|  | 2.4 | 8.8 | CC[C@H](C)[C@H](NC(=O)[C@H](Cc1ccc(O)cc1)NC(=O)[C@@H]1CCCN1C(=O)[C@H](CCCNC(=N)N)NC(=O)[C@H](CCCNC(=N)N)NC(=O)[C@@H]1CCCN1C(=O)[C@H](CCCCN)NC(=O)[C@H](C)NC(=O)[C@H](CCC(=O)O)NC(=O)[C@H](Cc1ccc(O)cc1)NC(=O)[C@H](CC(C)C)NC(=O)[C@@H]1CCC(=O)N1)C(=O)N[C@@H](CC(C)C)C(=O)O |
|  | > 100000 | 2500 | CC(C)C[C@H](NC(=O)[C@H](Cc1ccc(O)cc1)NC(=O)[C@H]1C/C=C\C[C@H](N)C(=O)N[C@@H](CCCCN)C(=O)N[C@@H](CCCCN)C(=O)N2CCC[C@H]2C(=O)N1)C(=O)O |
|  | > 100000 | 200 | CC(C)C[C@H](NC(=O)[C@H](Cc1ccc(O)cc1)NC(=O)[C@H]1CCCN1C(=O)[C@@H]1C/C=C\C[C@H](N)C(=O)N[C@@H](CCCCN)C(=O)N[C@@H](CCCCN)C(=O)N1)C(=O)O |
|  | > 100000 | 100 | CC(C)C[C@H](NC(=O)[C@H](Cc1ccc(O)cc1)NC(=O)[C@@H]1C/C=C\C[C@@H](N)C(=O)N[C@@H](CCCCN)C(=O)N[C@@H](CCCCN)C(=O)N1)C(=O)O |
|  | > 100000 | 620 | CC[C@H](C)[C@H](NC(=O)[C@H](Cc1ccc(O)cc1)NC(=O)[C@@H]1CCCN1C(=O)[C@H](CCCNC(=N)N)NC(=O)[C@@H](N)CCCNC(=N)N)C(=O)O |
|  | > 100000 | > 10000 | CC[C@@H](C)[C@H](NC(=O)[C@H](CC(C)C)NC(=O)[C@H](Cc1ccc(O)cc1)NC(=O)[C@@H]1C/C=C\C[C@H](N)C(=O)N[C@@H](CCCCN)C(=O)N[C@@H](CCCCN)C(=O)N1)C(=O)O |
